Source: US9326972B2, “Use of phenylmethimazoles, methimazole derivatives, and tautomeric cyclic thiones for the treatment of autoimmune/inflammatory diseases associated with toll-like receptor overexpression” (Ohio University, priority 2004, dated 2016)
Marks after values point to notes of the source that are not given here.

Legend:
[1] = system: NOD mice; assay: Glucosuria in NOD mice, infection/Coxsackie virus-induced Type 1 diabetes; format: in vivo, mouse
Text: Mice were housed in germ free facilities, termed clean, or normal facilities where viral infections can occur, termed dirty. Animals showing urine Tes-Tape positivity greater than 1+ are considered positive and to have diabetes (L. S. Wicker, et al., Diabetes, 35:855-60 (1986)). In experiments in a “dirty” animal facility, C10 was effective in retarding the development of glucosuria in the NOD mice. When this was repeated in a “clean” or germ free laboratory, no effect of C10 was noted. What was noted, however, was the onset of glucosuria in the mice was much earlier in the animals maintained in “dirty” as opposed to “clean” mouse facilities. Further, in experiments with 8 mice in each group, even in a dirty facility, the injection of CVB4 Edwards Coxsackie virus advanced the expression of glucosuria (last two rows).
Induction of Diabetes and treatment with drugs. NOD/Lt female mice were from the Jackson Laboratory (Bar Harbor, Me.). All experiments were carried out in accordance with “Guide for Care and Use of Laboratory Animals” (NIH Publication No. 85-23, revised 1985). Mice were injected with 200 μl PBS or 5×10^5 PFU of the CVB4 Edwards Coxsackie virus strain ip (D. V. Serreze, et al., J Virol, 79:1045-52 (2005)). Mice were treated daily with i/p injections of C-10, MMI, 2.5% DMSO(C10 carrier control), or PBS (MMI carrier control). After injections, blood and urinary glucose levels were monitored weekly using Chemstrips (Boehringer Mannheim). Consecutive values of >240 mg/dl on two occasions >24 h apart were considered diagnostic of diabetes. Experiments used 8 mice/group in up to 3 experiments.

[2] = system: TLR4 signaled genes; assay: Gene expression in organs of LPS-treated mice (Northern, RT-PCR); format: in vivo, mouse
[3] = system: ApoE−/− mice; assay: Atherosclerosis in ApoE−/− mice fed a high fat diet; format: in vivo, mouse; design: key to CORONARY AND MYOCARDIAL VESSELS INFLAMMATION / AORTIC INFLAMMATION: ++++ for severe; + for very mild
Description: C10 reduced vascular inflammation in ApoE−/− mice fed a high fat diet: C10 was given i.p. (1 mg/kg) every other day to mice for 8 weeks. Control mice received DMSO alone. Mice were sacrificed at 8 weeks and histopathology examined in different tissues as determined by hematoxylin and eosin staining. In FIG. 15, sections from the base of the aorta in C10 treated (FIG. 15, Panel A) and untreated mice (FIG. 15, Panel B) are presented as well as sections of the coronary artery vasculature in C10 treated (FIG. 15, Panel C) and untreated mice (FIG. 15, Panel D). Vessels in the myocardium were also compared in C10 treated and untreated mice. […] Similarly in Panel D, the picture is representative of long sections of the coronary arteries that were nearly fully occluded with plaque in untreated mice whereas in C10 treated mice (Panel C), coronary arteries were largely unobstructed. Further, even where lesions were evident the lumens of vessels remained patent. Vessels within the myocardium were obstructed by plaque in the absence of C10 but patent and nearly free of plaque in the mice treated with C10. Data are representative of multiple slides taken from multiple animals.
Sections of the coronary arteries and myocardium as well as the base of the aorta were compared in untreated mice vs. C10 treated mice both for extent of lesion, quality of lesion, overexpressed TLR4, overexpressed VCAM-1, and extent of inflammation and plaque. Lesions and observations were qualitatively evaluated using ++++ for severe to + for very mild. […] Evaluation was double blinded.
Experimental animals: Twenty female Apo E−/− mice (Jackson Laboratory), 5 weeks old and weighing 14.5 g (average weight), were divided in 4 groups: (1) animals treated with 10% DMSO; (2) animals treated orally with C-10 in DMSO (1 mg/kg body weight); (3) animals treated I/P with C-10 in DMSO (same dose); and (4) control animals without treatment.
The treatment was done every other day (8 week expt) or every day. The animals were fed on a Western-type diet (TD 88137 from Harlan, Teklan). […]

[4] = Solubility and storage stability of C10 solutions; format: physicochemical
Text: In the studies described in Table 5, C10 was formulated in DMSO and administered i.p. DMSO was used due to the low solubility of C10 in aqueous environments but can have well documented independent effects (M. S. Ivanovic, et al., Toxicology Letters, 147:153-159 (2004))]. […] To circumvent these issues, we used a proprietary cyclodextrin (CD) excipient that is approved by the FDA for use in humans to make an aqueous formulation of C10. […] In a test using LPS-induced toxic shock, oral excipient-solubilized C10, stored in diluted form at 4° C. for 8 weeks, was as effective in preventing death as was freshly made C10 i.p. in DMSO at the same 1 mg/kg dose.

[5] = + CVB4 Edwards Coxsackie virus, Dirty facility
[6] = C10 1 mg/kg every other day for 8 weeks

For Cn1c(-c2ccccc2)cnc1S [Compound C10, 5-Phenylmethimazole], the “glucosuria and death in Coxsackie's virus induced NOD mouse model of diabetes” value [1] was “effective in retarding glucosuria and death”, the “Glucosuria % of Total, Week 1” value [1, 5] was 0 % of Total and the “Glucosuria % of Total, Week 4” value [1, 5] was 0 % of Total. The “Glucosuria % of Total, Week 8” value [1, 5] was 20 % of Total, the “Glucosuria % of Total, Week 12” value [1, 5] was 30 % of Total and the “Glucosuria % of Total, Week 1” value ([1]; Clean facility) was 0 % of Total. The “Glucosuria % of Total, Week 4” value ([1]; Clean facility) was 0 % of Total, the “Glucosuria % of Total, Week 8” value ([1]; Clean facility) was 0 % of Total and the “Glucosuria % of Total, Week 12” value ([1]; Clean facility) was 20 % of Total. For the same molecule, the “Glucosuria % of Total, Week 16” value ([1]; Clean facility) was 40 % of Total, the “Glucosuria % of Total, Week 20” value ([1]; Clean facility) was 100 % of Total and the “Glucosuria % of Total, Week 1” value ([1]; Dirty facility) was 0 % of Total. The “Glucosuria % of Total, Week 4” value ([1]; Dirty facility) was 0 % of Total, the “Glucosuria % of Total, Week 8” value ([1]; Dirty facility) was 0 % of Total and the “Glucosuria % of Total, Week 12” value ([1]; Dirty facility) was 0 % of Total. The “pro-inflammatory cytokine gene expression (TNF α, IL-1β, IL-6, IL-12, IFN γ) in spleen, liver, lung, kidney, heart” value ([2]; LPS injected mice at 24 hours, Northern) was “suppressed”, the “LPS-induced over-expression of IRF-1, IP-10 and MCP-1 RNA in organs” value ([2]; LPS-treated mice of Table 5, Northern) was “suppressed” and the “LPS-elevated COX-2 RNA levels” value ([2]; kidney, liver and lung, RT-PCR) was “completely suppressed and returned to normal”. The “LPS-down-regulated COX-1 RNA levels” value ([2]; organs of LPS treated mice, RT-PCR) was “returned RNA levels to the normal levels”, the “LPS-increased iNOS RNA levels” value ([2]; spleen, liver, lung, kidney, heart, RT-PCR) was “suppressed” and the “AORTIC INFLAMMATION” value [3, 6] was “+*”. The “CORONARY AND MYOCARDIAL VESSELS INFLAMMATION” value [3, 6] was “+*”, the weight gain ([3]; C10 orally and ip, 4 weeks) was “decreased” and the “solubility in aqueous environments” value [4] was “low”. For the same molecule, the “stability of C10 solubilized in DMSO and diluted to a working concentration” value [4] was “not stable for prolonged periods of time” and the “activity of C10 diluted in DMSO and stored in diluted form” value ([4]; stored at either 4° C. or −70° C., in vitro or in vivo) was “inactive”.
